Source: patent publication US20170121315A1, “HETEROBICYCLICALLY SUBSTITUTED 4-OXOBUTANE ACID DERIVATIVES AND USE THEREOF” (priority 2014, published 2017)

Target: T1, human macrophage elastase (HME/hMMP-12) (Homo sapiens, UniProt P39900)
T1 construct: purchased R&D Systems 917-MP
Assay: In vitro HME inhibition test (standard or high-sensitivity)
Type: biochemical
Conditions: in some cases mean values, rounded to two significant figures
Method: The potency of the compounds according to the invention with respect to HME (MMP-12) is determined in an in vitro inhibition test. The HME-mediated amidolytic cleavage of a suitable peptide substrate leads to an increase in fluorescent light therein. The signal intensity of the fluorescent light is directly proportional to the enzyme activity. The active concentration of a test compound at which half the enzyme is inhibited (50% signal intensity of the fluorescent light) is reported as the IC50 value.
In a 384 hole microtiter plate, in a total test volume of 41 μl, the test buffer (0.1 M HEPES pH 7.4, 0.15 M NaCl, 0.03 M CaCl2, 0.004 mM ZnCl2, 0.02 M EDTA, 0.005% Brij®), the enzyme (0.5 nM HME; R&D Systems, 917-MP, autocatalytic activation according to the manufacturer's instructions) and the intramolecularly quenched substrate [5 μM Mca-Pro-Leu-Gly-Leu-Glu-Glu-Ala-Dap(Dnp)-NH2; Bachem, M-2670] are incubated in the absence and presence of the test substance (as a solution in DMSO) at 37° C. for two hours. The fluorescence intensity of the test mixtures is measured (excitation […], emission 393 nm). The IC50 values are ascertained by plotting the fluorescent light intensity against the active ingredient concentration.
In this case, an enzyme concentration ten times lower is used (final concentration, e.g. 0.05 nM) in order to achieve an increased test sensitivity. The incubation period chosen for the test is correspondingly longer (e.g. 16 hours).

T1 sequence (P39900 106-470): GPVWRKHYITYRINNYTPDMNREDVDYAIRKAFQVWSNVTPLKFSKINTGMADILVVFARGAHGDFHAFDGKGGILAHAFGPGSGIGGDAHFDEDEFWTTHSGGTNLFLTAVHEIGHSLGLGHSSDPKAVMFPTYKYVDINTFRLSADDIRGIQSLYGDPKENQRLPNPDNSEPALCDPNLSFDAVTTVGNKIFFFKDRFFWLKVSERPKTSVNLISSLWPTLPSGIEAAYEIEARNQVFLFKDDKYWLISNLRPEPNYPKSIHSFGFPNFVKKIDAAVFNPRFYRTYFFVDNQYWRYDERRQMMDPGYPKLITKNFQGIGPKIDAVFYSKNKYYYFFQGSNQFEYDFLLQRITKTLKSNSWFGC

Structure (SMILES)	IC50
O=C(CC(CCn1nnc2ccccc2c1=O)C(=O)O)c1cc2ccc(OCC(=O)C3CC3)cc2s1 (racemic) [Example 115, (+/−)-4-[6-(2-Cyclopropyl-2-oxoethoxy)-1-benzothiophen-2-yl]-4-oxo-2-[2-(4-oxo-1,2,3-benzotriazin-3(4H)-yl)ethyl]butanoic acid]	3.1 nM
O=C(CC(CCn1nnc2ccccc2c1=O)C(=O)O)c1cc2ccc(OCCCC(F)(F)F)cc2s1 (racemic) [Example 120, (+/−)-4-Oxo-2-[2-(4-oxo-1,2,3-benzotriazin-3(4H)-yl)ethyl]-4-[6-(4,4,4-trifluorobutoxy)-1-benzothiophen-2-yl]butanoic acid]	3.6 nM
O=C(CC(CCn1nnc2ccccc2c1=O)C(=O)O)c1cc2ccc(OCC3CCC3)cc2s1 (racemic) [Example 121, (+/−)-4-[6-(Cyclobutylmethoxy)-1-benzothiophen-2-yl]-4-oxo-2-[2-(4-oxo-1,2,3-benzotriazin-3(4H)-yl)ethyl]butanoic acid]	3.1 nM
CC(C)CCOc1ccc2cc(C(=O)CC(CCn3nnc4ccccc4c3=O)C(=O)O)sc2c1 (racemic) [Example 122, (+/−)-4-[6-(3-Methylbutoxy)-1-benzothiophen-2-yl]-4-oxo-2-[2-(4-oxo-1,2,3-benzotriazin-3(4H)-yl)ethyl]butanoic acid]	4.5 nM
O=C(CC(CCn1nnc2ccccc2c1=O)C(=O)O)c1cc2ccc(OCc3ccncc3)cc2s1 (racemic) [Example 123, (+/−)-4-Oxo-2-[2-(4-oxo-1,2,3-benzotriazin-3(4H)-yl)ethyl]-4-[6-(pyridin-4-ylmethoxy)-1-benzothiophen-2-yl]butanoic acid]	2.7 nM
COc1cccc(C(=O)COc2ccc3cc(C(=O)CC(CCn4nnc5ccccc5c4=O)C(=O)O)sc3c2)c1 (racemic) [Example 124, (+/−)-4-{6-[2-(3-Methoxyphenyl)-2-oxoethoxy]-1-benzothiophen-2-yl}-4-oxo-2-[2-(4-oxo-1,2,3-benzotriazin-3(4H)-yl)ethyl]butanoic acid]	0.95 nM
CCCCOc1ccc2cc(C(=O)CC(CCn3nnc4ccccc4c3=O)C(=O)O)sc2c1 (racemic) [Example 126, (+/−)-4-(6-Butoxy-1-benzothiophen-2-yl)-4-oxo-2-[2-(4-oxo-1,2,3-benzotriazin-3(4H)-yl)ethyl]butanoic acid]	2.9 nM
O=C(CC(CCn1nnc2ccc(C(F)(F)F)cc2c1=O)C(=O)O)c1cc2ccc(OCC3CC3)cc2s1 (racemic) [Example 128, (+/−)-4-[6-(Cyclopropylmethoxy)-1-benzothiophen-2-yl]-4-oxo-2-{2-[4-oxo-6-(trifluoromethyl)-1,2,3-benzotriazin-3(4H)-yl]ethyl}butanoic acid]	1.1 nM
COc1ccc2cc(C(=O)CC(CCn3nnc4ccc(C(F)(F)F)cc4c3=O)C(=O)O)sc2c1 (racemic) [Example 131, (+/−)-4-(6-Methoxy-1-benzothiophen-2-yl)-4-oxo-2-{2-[4-oxo-6-(trifluoromethyl)-1,2,3-benzotriazin-3(4H)-yl]ethyl}butanoic acid]	1.2 nM
CCCOc1ccc2cc(C(=O)CC(CCn3nnc4ccc(C(F)(F)F)cc4c3=O)C(=O)O)sc2c1 (racemic) [Example 132, (+/−)-4-Oxo-2-{2-[4-oxo-6-(trifluoromethyl)-1,2,3-benzotriazin-3(4H)-yl]ethyl}-4-(6-propoxy-1-benzothiophen-2-yl)butanoic acid]	0.51 nM
O=C(CC(CCn1nnc2ccccc2c1=O)C(=O)O)c1noc2cc(OCCC3CCCCC3)ccc12 (racemic) [Example 141, (+/−)-4-[6-(2-Cyclohexylethoxy)-1,2-benzoxazol-3-yl]-4-oxo-2-[2-(4-oxo-1,2,3-benzotriazin-3(4H)-yl)ethyl]butanoic acid]	0.12 nM
O=C(CC(CCn1nnc2ccccc2c1=O)C(=O)O)c1noc2cc(OCc3ccc(Cl)cc3)ccc12 (racemic) [Example 147, (+/−)-4-{6-[(4-Chlorobenzyl)oxy]-1,2-benzoxazol-3-yl}-4-oxo-2-[2-(4-oxo-1,2,3-benzotriazin-3(4H)-yl)ethyl]butanoic acid]	1.7 nM
O=C(CC(CCn1nnc2ccccc2c1=O)C(=O)O)c1noc2cc(OCCC3CCOCC3)ccc12 (racemic) [Example 149, (+/−)-4-Oxo-2-[2-(4-oxo-1,2,3-benzotriazin-3(4H)-yl)ethyl]-4-{6-[2-(tetrahydro-2H-pyran-4-yl)ethoxy]-1,2-benzoxazol-3-yl}butanoic acid]	0.58 nM
O=C(CC(CCn1nnc2ccccc2c1=O)C(=O)O)c1noc2cc(OCCC3CCCC3)ccc12 (racemic) [Example 151, (+/−)-4-[6-(2-Cyclopentylethoxy)-1,2-benzoxazol-3-yl]-4-oxo-2-[2-(4-oxo-1,2,3-benzotriazin-3(4H)-yl)ethyl]butanoic acid]	0.27 nM
CCCOc1ccc2cc(C(=O)CC(CCn3nnc4ccccc4c3=O)C(=O)O)oc2c1 (single isomer, unassigned) [Example 59, 4-Oxo-2-[2-(4-oxo-1,2,3-benzotriazin-3(4H)-yl)ethyl]-4-(6-propoxy-1-benzofur-2-yl)butanoic acid]	980 nM
O=C(CC(CCn1nnc2ccccc2c1=O)C(=O)O)c1coc2cc(OCc3ccc(Cl)c(Cl)c3)ccc12 (single isomer, unassigned) [Example 93, 4-{6-[(3,4-Dichlorobenzyl)oxy]-1-benzofur-3-yl}-4-oxo-2-[2-(4-oxo-1,2,3-benzotriazin-3(4H)-yl)ethyl]butanoic acid]	97 nM
O=C(CC(CCn1nnc2ccccc2c1=O)C(=O)O)c1cc2cc(OCc3ccc(Cl)c(Cl)c3)ccc2o1 (single isomer, unassigned; (+)) [Example 27, (+)-4-{5-[(3,4-Dichlorobenzyl)oxy]-1-benzofur-2-yl}-4-oxo-2-[2-(4-oxo-1,2,3-benzotriazin-3(4H)-yl)ethyl]butanoic acid]	0.19 nM

Now from value to compound:

IC50	Structure (SMILES)
4.2 nM	CCCOc1ccc2cc(C(=O)CC(CCn3nnc4ccccc4c3=O)C(=O)O)sc2c1 (racemic) [Example 116, (+/−)-4-Oxo-2-[2-(4-oxo-1,2,3-benzotriazin-3(4H)-yl)ethyl]-4-(6-propoxy-1-benzothiophen-2-yl)butanoic acid]
5.9 nM	O=C(CC(CCn1nnc2ccccc2c1=O)C(=O)O)c1cc2ccc(OCC3CCCO3)cc2s1 (racemic) [Example 117, (+/−)-4-Oxo-2-[2-(4-oxo-1,2,3-benzotriazin-3(4H)-yl)ethyl]-4-{6-[tetrahydrofuran-2-ylmethoxy]-1-benzothiophen-2-yl}butanoic acid]
3.7 nM	O=C(CC(CCn1nnc2ccccc2c1=O)C(=O)O)c1cc2ccc(OCC3CCO3)cc2s1 (racemic) [Example 119, (+/−)-4-{6-[Oxetan-2-ylmethoxy]-1-benzothiophen-2-yl}-4-oxo-2-[2-(4-oxo-1-benzotriazin-3(4H)-yl)ethyl]butanoic acid]
4 nM	O=C(CC(CCn1nnc2ccccc2c1=O)C(=O)O)c1cc2ccc(OCc3ccc(F)cc3)cc2s1 (racemic) [Example 125, (+/−)-4-{6-[(4-Fluorobenzyl)oxy]-1-benzothiophen-2-yl}-4-oxo-2-[2-(4-oxo-1,2,3-benzotriazin-3(4H)-yl)ethyl]butanoic acid]
2.8 nM	CCOc1ccc2cc(C(=O)CC(CCn3nnc4ccccc4c3=O)C(=O)O)sc2c1 (racemic) [Example 127, (+/−)-4-(6-Ethoxy-1-benzothiophen-2-yl)-4-oxo-2-[2-(4-oxo-1,2,3-benzotriazin-3(4H)-yl)ethyl]butanoic acid]
0.58 nM	NC(=O)c1cccc(COc2ccc3c(C(=O)CC(CCn4nnc5ccccc5c4=O)C(=O)O)noc3c2)c1 (racemic) [Example 139, (+/−)-4-{6-[(3-Carbamoylbenzyl)oxy]-1,2-benzoxazol-3-yl}-4-oxo-2-[2-(4-oxo-1,2,3-benzotriazin-3(4H)-yl)ethyl]butanoic acid]
1.1 nM	O=C(CC(CCn1nnc2ccccc2c1=O)C(=O)O)c1noc2cc(OCc3cccc(Cl)c3)ccc12 (racemic) [Example 146, (+/−)-4-{6-[(3-Chlorobenzyl)oxy]-1,2-benzoxazol-3-yl}-4-oxo-2-[2-(4-oxo-1,2,3-benzotriazin-3(4H)-yl)ethyl]butanoic acid]
1.4 nM	O=C(CC(CCn1nnc2ccccc2c1=O)C(=O)O)c1noc2cc(OCC3CCCC3)ccc12 (racemic) [Example 152, (+/−)-4-[6-(Cyclopentylmethoxy)-1,2-benzoxazol-3-yl]-4-oxo-2-[2-(4-oxo-1,2,3-benzotriazin-3(4H)-yl)ethyl]butanoic acid]
1.8 nM	CCCOc1ccc2cc(C(=O)CC(CCn3nnc4ccccc4c3=O)C(=O)O)oc2c1 (single isomer, unassigned) [Example 60, 4-Oxo-2-[2-(4-oxo-1,2,3-benzotriazin-3(4H)-yl)ethyl]-4-(6-propoxy-1-benzofur-2-yl)butanoic acid]
81 nM	CCCCCOc1ccc2c(C(=O)CC(CCn3nnc4ccccc4c3=O)C(=O)O)coc2c1 (single isomer, unassigned) [Example 90, 4-Oxo-2-[2-(4-oxo-1,2,3-benzotriazin-3(4H)-yl)ethyl]-4-[6-(pentyloxy)-1-benzofur-3-yl]butanoic acid]
